Laboratory results published in article PMC11876601 (Molecular Systems Biology, 2025).
Where two headings read alike, the source gives them in different places.

Tested on: Suit2-07 cells
Experiment: Cell proliferation assay, GEM + ATR inhibitor (Incucyte confluence, 72 h);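 also: Suit2-07 cells grown in 96-well plates at 37 °C, 5% CO2, raw 72 h confluence taken without normalizing to starting confluence, each experiment done in triplicate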
Assay type: cell-based, human
Conditions: Suit2-07; for EC50: Homo sapiens, 72 h; for Response: R1; for Curve bottom / Curve top: plateau of fitted curve, ratio drug/vehicle confluence
[1] = experiment ATRi (ATR inhibitor alone), -log10 of EC50 [M], read-out: pEC50 (converted)
[2] = experiment ATRi (ATR inhibitor alone), mean (one replicate), read-out: EC50 mean
[3] = experiment ATRi (ATR inhibitor alone), replicate R1, read-out: EC50
[4] = GEM+ATRi_dose1, GEM 0 nM + ATRi 10 nM, in % (unit assumed)
[5] = GEM+ATRi_dose1, GEM 1 nM + ATRi 10 nM, in % (unit assumed)
[6] = GEM+ATRi_dose1, GEM 3 nM + ATRi 10 nM, in % (unit assumed)
[7] = GEM+ATRi_dose1, GEM 10 nM + ATRi 10 nM, in % (unit assumed)
[8] = GEM+ATRi_dose1, GEM 30 nM + ATRi 10 nM, in % (unit assumed)
[9] = GEM+ATRi_dose1, GEM 100 nM + ATRi 10 nM, in % (unit assumed)
[10] = GEM+ATRi_dose1, GEM 300 nM + ATRi 10 nM, in % (unit assumed)
[11] = GEM+ATRi_dose1, GEM 1000 nM + ATRi 10 nM, in % (unit assumed)
[12] = GEM+ATRi_dose1, GEM 3000 nM + ATRi 10 nM, in % (unit assumed)
[13] = GEM+ATRi_dose2, GEM 0 nM + ATRi 3 nM, in % (unit assumed)
[14] = GEM+ATRi_dose2, GEM 1 nM + ATRi 3 nM, in % (unit assumed)
[15] = GEM+ATRi_dose2, GEM 3 nM + ATRi 3 nM, in % (unit assumed)
[16] = GEM+ATRi_dose2, GEM 10 nM + ATRi 3 nM, in % (unit assumed)
[17] = GEM+ATRi_dose2, GEM 30 nM + ATRi 3 nM, in % (unit assumed)
[18] = GEM+ATRi_dose2, GEM 100 nM + ATRi 3 nM, in % (unit assumed)
[19] = GEM+ATRi_dose2, GEM 300 nM + ATRi 3 nM, in % (unit assumed)
[20] = GEM+ATRi_dose2, GEM 1000 nM + ATRi 3 nM, in % (unit assumed)
[21] = GEM+ATRi_dose2, GEM 3000 nM + ATRi 3 nM, in % (unit assumed)
[22] = GEM+ATRi_dose3, GEM 0 nM + ATRi 30 nM, in % (unit assumed)
[23] = GEM+ATRi_dose3, GEM 1 nM + ATRi 30 nM, in % (unit assumed)
[24] = GEM+ATRi_dose3, GEM 3 nM + ATRi 30 nM, in % (unit assumed)
[25] = GEM+ATRi_dose3, GEM 10 nM + ATRi 30 nM, in % (unit assumed)
[26] = GEM+ATRi_dose3, GEM 30 nM + ATRi 30 nM
[27] = GEM+ATRi_dose3, GEM 100 nM + ATRi 30 nM, in % (unit assumed)
[28] = GEM+ATRi_dose3, GEM 300 nM + ATRi 30 nM, in % (unit assumed)
[29] = GEM+ATRi_dose3, GEM 1000 nM + ATRi 30 nM, in % (unit assumed)
[30] = GEM+ATRi_dose3, GEM 3000 nM + ATRi 30 nM, in % (unit assumed)
[31] = experiment ATRi (ATR inhibitor alone)
[32] = experiment ATRi, ATRi 3 nM, GEM 0 nM, in % (unit assumed)
[33] = experiment ATRi, ATRi 10 nM, GEM 0 nM, in % (unit assumed)
[34] = experiment ATRi, ATRi 30 nM, GEM 0 nM, in % (unit assumed)
[35] = experiment ATRi, ATRi 100 nM, GEM 0 nM, in % (unit assumed)
[36] = experiment ATRi, ATRi 300 nM, GEM 0 nM, in % (unit assumed)
[37] = experiment ATRi, ATRi 1000 nM, GEM 0 nM, in % (unit assumed)
[38] = experiment ATRi, ATRi 3000 nM, GEM 0 nM, in % (unit assumed)
[39] = experiment ATRi, ATRi 10000 nM, GEM 0 nM, in % (unit assumed)

Description: Cells were seeded at 5000 cells/well into 96-well flat bottom plates (Eppendorf) and allowed to attach overnight. […] Cells were incubated for 72 h at 37 °C and 5% CO2. Cell confluence readouts at 72 h were either normalized to their initial confluence using the Incucyte software (AsPC-1) or used without prior normalization (all others). […] Each experiment was performed in triplicates, the data was plotted as mean ± standard deviation (s.d.).

## CNCc1ccc(-c2cc(-c3nc(-c4ccc(S(=O)(=O)C(C)C)cc4)cnc3N)on2)cc1 [Berzosertib]
[1]
  EC50: 8.32e-07 M
[2]
  EC50: 8.26e-07 M
[3]
  EC50: 8.26e-07 M
[4]
  Response: 98.77
[5]
  Response: 98.71
[6]
  Response: 96.04
[7]
  Response: 36.30
[8]
  Response: 15.43
[9]
  Response: 14.13
[10]
  Response: 12.00
[11]
  Response: 12.45
[12]
  Response: 11.51
[13]
  Response: 99.37
[14]
  Response: 98.07
[15]
  Response: 44.64
[16]
  Response: 20.67
[17]
  Response: 15.78
[18]
  Response: 12.95
[19]
  Response: 13.27
[20]
  Response: 13.27
[21]
  Response: 11.05
[22]
  Response: 92.60
[23]
  Response: 79.33
[24]
  Response: 33.65
[25]
  Response: 15.80
[26]
  Response: 15.08
[27]
  Response: 13.63
[28]
  Response: 12.25
[29]
  Response: 9.74
[30]
  Response: 10.10
[31]
  Curve bottom: 1.01
  Curve top: 0.09
[32]
  Response: 98.72
[33]
  Response: 98.54
[34]
  Response: 98.42
[35]
  Response: 98.94
[36]
  Response: 89.08
[37]
  Response: 45.00
[38]
  Response: 16.95
[39]
  Response: 8.62
Experiment GEM+ATRi_dose1
  Curve bottom: 1.01
  Curve top: 0.13
Experiment GEM+ATRi_dose2
  Curve bottom: 1.03
  Curve top: 0.15
Experiment GEM+ATRi_dose3
  Curve bottom: 0.95
  Curve top: 0.13

## C[C@@H]1COCCN1c1cc(C2([S@](C)(=N)=O)CC2)nc(-c2cc[nH]c3nccc2-3)n1 [Ceralasertib]
[1]
  EC50: 3.24e-06 M
[2]
  EC50: 3.24e-06 M
[3]
  EC50: 3.24e-06 M
[4]
  Response: 99.44
[5]
  Response: 97.06
[6]
  Response: 98.33
[7]
  Response: 33.90
[8]
  Response: 18.26
[9]
  Response: 14.84
[10]
  Response: 14.60
[11]
  Response: 10.84
[12]
  Response: 13.52
[13]
  Response: 99.06
[14]
  Response: 97.53
[15]
  Response: 42.89
[16]
  Response: 18.83
[17]
  Response: 15.03
[18]
  Response: 14.03
[19]
  Response: 10.54
[20]
  Response: 10.54
[21]
  Response: 14.48
[22]
  Response: 99.04
[23]
  Response: 98.92
[24]
  Response: 74.44
[25]
  Response: 18.78
[26]
  Response: 15.93
[27]
  Response: 13.11
[28]
  Response: 12.75
[29]
  Response: 9.23
[30]
  Response: 13.00
[32]
  Response: 99.07
[33]
  Response: 99.08
[34]
  Response: 98.55
[35]
  Response: 98.02
[36]
  Response: 95.91
[37]
  Response: 89.97
[38]
  Response: 57.79
[39]
  Response: 20.77
Experiment GEM+ATRi_dose1
  Curve top: 0.15
Experiment GEM+ATRi_dose2
  Curve top: 0.14
Experiment GEM+ATRi_dose3
  Curve top: 0.13
